Key:
glioblastoma [1] = conditions: TMZ during radiotherapy and for six months post radiotherapy; cited from earlier work
glioblastoma [2] = conditions: glioblastoma patients at progression after standard therapy; results of 2 studies; cited from earlier work
recurrent GBM = test: Conventional MRI and maps follow-up of a recurrent GBM patient on Bevacizumab (Example 3); assay type: in vivo, human; conditions: one patient, three months after initiation of Bevacizumab treatment
Source text: Referring now to FIG. 8, a person with recurrent GBM was recruited 7 month after diagnosis prior to initiation of Bevacizumab treatment. At diagnosis the patients was operated on and received chemoradiation followed by TMZ. Six months later, at progression, the patient underwent a second resection and was recruited to the present Bevacizumab study 1 month after the second surgery, prior to initiation of the Bevacizumab treatment. At this point their enhancing lesion consisted of nearly 50% tumor according to the maps. […] Following this scan the patient was treated with re-irradiation (in parallel with continuing Bevacizumab) and was stabilized. […] The patient lived another ˜7 months after this last MRI scan.

[3] = test system: cerebellar metastasis of breast cancer; test: Delayed contrast extravasation MRI maps before and after Avastin treatment, patient case (Example 15); assay type: in vivo, human; conditions: one patient, 2 years after stereotactic radiosurgery; maps before vs after Avastin treatment
Source text: There is current dispute weather Avastin affects active tumor or only treatment effects.
A patient with cerebellar metastasis of breast cancer was recruited 2 years after stereotactic radiosurgery with suspected radiation necrosis.

In the case of Cn1nnc2c(C(N)=O)ncn2c1=O [temozolomide], the additional toxicity (glioblastoma [1]) is listed as “minimal additional toxicity”.
For Bevacizumab, the tumor size (glioblastoma [2]) is given as “reduced tumor size in some glioblastoma patients”, the “conventional MRI finding” value (recurrent GBM) is given as “showed improvement” and the “blue/tumor volume in the maps” value (recurrent GBM; consistent with clinical deterioration) is given as “significantly larger blue/tumor volume”. The “response of tumor and radiation necrosis components in the maps” value [3] was “remarkable response of both components”.
